Data from BindingDB's records for doi:10.1021/jm00144a025 (1982).

Key:
[1] = target: serotonin transporter (Mus musculus); assay: In vitro inhibition of accumulation of [14C]5-HT (5-HT) in mouse brain slices
[2] = target: norepinephrine transporter (Mus musculus); assay: In vitro inhibition of accumulation of (-)-[3H]Norepinephrine (NA) in mouse brain slices

| IC50 [1] | IC50 [2] | Structure (SMILES) |
| --- | --- | --- |
| 3700 nM | 27000 nM | CN(C)C/C=C(/c1ccccc1)c1cccnc1 [cis -Dimethyl-(3-phenyl-3-pyridin-3-yl-allyl)-amine;1.5C2H4O4] |
| 2400 nM | > 29000 nM | Cc1ccc(/C(=C/CN(C)C)c2cccnc2)cc1 [cis -Dimethyl-(3-pyridin-3-yl-3-p-tolyl-allyl)-amine;C2H4O4] |
| 2000 nM | 13000 nM | CN(C)C/C=C(/c1ccc(C(F)(F)F)cc1)c1cccnc1 [cis -Dimethyl-[3-pyridin-3-yl-3-(4-trifluoromethyl-phenyl)-allyl]-amine;C2H4O4] |
| 500 nM | 2300 nM | CNC/C=C(\c1cccnc1)c1ccc(Cl)cc1Cl [cis-[3-(2,4-Dichloro-phenyl)-3-pyridin-3-yl-allyl]-methyl-amine;C2H4O4] |
| 4200 nM | 2200 nM | CN(C)C/C=C(\c1cccnc1)c1ccccc1Br [cis-[3-(2-Bromo-phenyl)-3-pyridin-3-yl-allyl]-dimethyl-amine;C2H4O4] |
| 600 nM | 300 nM | CNC/C=C(\c1cccnc1)c1ccccc1Br [cis-[3-(2-Bromo-phenyl)-3-pyridin-3-yl-allyl]-methyl-amine;C2H4O4] |
| 1400 nM | 900 nM | CNC/C=C(\c1cccnc1)c1cccc(Br)c1 [cis-[3-(3-Bromo-phenyl)-3-pyridin-3-yl-allyl]-methyl-amine;C2H4O4] |
| 2600 nM | 11000 nM | CN(C)C/C=C(\c1cccnc1)c1cccc(Cl)c1 [cis-[3-(3-Chloro-phenyl)-3-pyridin-3-yl-allyl]-dimethyl-amine;C2H4O4] |
| 1600 nM | 2200 nM | CN(C)C/C=C(\c1cccnc1)c1cccc(F)c1 [cis-[3-(3-Fluoro-phenyl)-3-pyridin-3-yl-allyl]-dimethyl-amine;C2H4O4] |
| 2000 nM | 26000 nM | CCNC/C=C(/c1ccc(Br)cc1)c1cccnc1 [cis-[3-(4-Bromo-phenyl)-3-pyridin-3-yl-allyl]-ethyl-amine;C2H4O4] |
| 24000 nM | > 24000 nM | CCCNC/C=C(/c1ccc(Br)cc1)c1cccnc1 [cis-[3-(4-Bromo-phenyl)-3-pyridin-3-yl-allyl]-propyl-amine;C2H4O4] |
| 2100 nM | 10000 nM | CN(C)C/C=C(/c1ccc(Cl)cc1)c1cccnc1 [cis-[3-(4-Chloro-phenyl)-3-pyridin-3-yl-allyl]-dimethyl-amine;C2H4O4] |
| 1000 nM | > 22000 nM | CN(C)C/C=C(/c1ccc(I)cc1)c1cccnc1 [cis-[3-(4-Iodo-phenyl)-3-pyridin-3-yl-allyl]-dimethyl-amine;C2H4O4] |
| 3500 nM | 34000 nM | CC(C)Oc1ccc(/C(=C/CN(C)C)c2ccncc2)cc1 [cis-[3-(4-Isopropoxy-phenyl)-3-pyridin-4-yl-allyl]-dimethyl-amine;C2H4O4] |
| 800 nM | > 28000 nM | COc1ccc(/C(=C/CN(C)C)c2cccnc2)cc1 [cis-[3-(4-Methoxy-phenyl)-3-pyridin-3-yl-allyl]-dimethyl-amine;C2H4O4] |
